From publication PMC11415492 (Nature Communications, 2024)
Several values for one entry are separate records, joined by “and”; a condition that tells them apart may be missing. Identical values can stand only once. Counter-ions that a name gives are not always drawn. Like-named read-outs stand apart in the source and are kept apart here.

Legend:
hERG potassium channel = target: T1, hERG potassium channel (Homo sapiens, UniProt Q12809); settings: lit. value; cited from earlier work
T1 construct: purchased contracted research organization (eurofinsdiscoveryservices.com) item 4094

rat NMDA receptor = experiment: rat NMDA radioligand displacement ([3H]MK-801); type: binding
[1] = Pharmacokinetic study in mice (plasma and brain), with estimated free drug concentrations; type: in vivo, mouse; settings: for Brain Concentration (total) / Free Brain Concentration / Free Plasma Concentration / Plasma Concentration (total) / concentration at 0.083 h / concentration at 0.25 h / concentration at 0.5 h / concentration at 1 h / concentration at 2 h: mice, individual animals; for Brain Concentration (total) / Free Brain Concentration / Free Plasma Concentration / Plasma Concentration (total) / Total concentration / concentration at 0.083 h / concentration at 0.25 h / concentration at 0.5 h / concentration at 1 h / concentration at 2 h: 10 mg/kg s.c.; for Brain Concentration (total) / Free Brain Concentration / Free Plasma Concentration / Plasma Concentration (total) / concentration at 0.083 h / concentration at 0.25 h / concentration at 0.5 h / concentration at 1 h / concentration at 2 h / Cmax / AUC(0-inf) / AUC(0-t): 10 mg/kg; for Total concentration: Mice; for CLf / T1/2 / Cmax / AUC(0-inf) / AUC(0-t) / Tmax / half-life / Vd/F: male C57BL/6 mice; for concentration at 0.083 h / concentration at 0.25 h / concentration at 0.5 h / concentration at 1 h / concentration at 2 h / Cmax / AUC(0-inf) / AUC(0-t): male, C57BL/6, mouse; for concentration at 0.083 h / concentration at 0.25 h / concentration at 0.5 h / concentration at 1 h / concentration at 2 h / Cmax / AUC(0-inf) / AUC(0-t) / Tmax / half-life / Vd/F: sc; for Tmax / half-life / Vd/F: mouse; for half-life: read-out: T1/2z (converted); for Vd/F: read-out: VZ/F
hKOR = target: T2, hKOR (Homo sapiens, UniProt P41145); experiment: Nanobody Nb33 sensor recruitment BRET assay; type: cell-based
T2 construct: expressed in transfected cells; host or cells: HEK-293T, transient (PEI)

mMOR = target: T3, mMOR (Mus musculus, UniProt P42866); experiment: G protein activation BRET assay; type: cell-based; settings: for Fig. S5h concentration-response data point: Log [Drug], single replicate values
T3 construct: expressed in transfected cells; host or cells: HEK-293T, transient (PEI)

[2] = 180 mg oral dose; cited from earlier work
[3] = human
h5-HT2B = h5-HT2B (Homo sapiens, UniProt P41595); experiment: IP1 functional assay, antagonist; type: cell-based; settings: read-out: % Inhibition of Control Agonist Response
[4] = system: adult human primary ventricular myocytes; experiment: Cardiotoxicity (pro-arrhythmia) assay in adult human primary cardiomyocytes; type: cell-based; settings: for pro-arrhythmic potential: 0.1–10 µM
[5] = Noribogaine clinical dose escalation data (plasma concentration, QT); type: in vivo; settings: from reported clinical total plasma concentrations and own human plasma protein binding
hMOR = hMOR (Homo sapiens, UniProt P35372); experiment: cell-based
rKOR = target: T4, rKOR (Rattus norvegicus, UniProt P34975); experiment: G protein activation BRET assay (GαoB); type: cell-based; settings: for EC50: HEK-293T
T4 construct: signal peptide (N); expressed in transfected cells; host or cells: HEK-293T, transient (PEI)
T4 sequence (P34975 whole entry): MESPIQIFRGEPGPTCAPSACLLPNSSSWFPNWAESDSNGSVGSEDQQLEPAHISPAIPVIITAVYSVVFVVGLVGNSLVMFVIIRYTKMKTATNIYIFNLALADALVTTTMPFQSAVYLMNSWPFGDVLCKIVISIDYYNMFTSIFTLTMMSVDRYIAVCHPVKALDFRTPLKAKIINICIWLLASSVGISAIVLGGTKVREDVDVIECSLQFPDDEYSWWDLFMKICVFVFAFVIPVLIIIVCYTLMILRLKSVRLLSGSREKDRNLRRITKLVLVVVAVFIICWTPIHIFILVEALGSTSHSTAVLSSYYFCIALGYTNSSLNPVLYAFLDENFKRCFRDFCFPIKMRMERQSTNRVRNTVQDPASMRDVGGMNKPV

T3 sequence (P42866 whole entry): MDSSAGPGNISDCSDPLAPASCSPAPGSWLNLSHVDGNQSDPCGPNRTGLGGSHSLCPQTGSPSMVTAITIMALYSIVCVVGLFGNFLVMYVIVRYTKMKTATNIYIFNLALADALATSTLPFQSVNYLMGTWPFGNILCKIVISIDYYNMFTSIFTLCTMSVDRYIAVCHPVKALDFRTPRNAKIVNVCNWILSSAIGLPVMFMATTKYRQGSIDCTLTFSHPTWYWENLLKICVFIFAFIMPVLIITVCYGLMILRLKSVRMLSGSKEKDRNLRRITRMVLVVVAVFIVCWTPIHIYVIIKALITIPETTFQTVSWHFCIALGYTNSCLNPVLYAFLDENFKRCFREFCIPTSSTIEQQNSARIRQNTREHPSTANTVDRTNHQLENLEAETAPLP
Sequence of hMOR (P35372 whole entry): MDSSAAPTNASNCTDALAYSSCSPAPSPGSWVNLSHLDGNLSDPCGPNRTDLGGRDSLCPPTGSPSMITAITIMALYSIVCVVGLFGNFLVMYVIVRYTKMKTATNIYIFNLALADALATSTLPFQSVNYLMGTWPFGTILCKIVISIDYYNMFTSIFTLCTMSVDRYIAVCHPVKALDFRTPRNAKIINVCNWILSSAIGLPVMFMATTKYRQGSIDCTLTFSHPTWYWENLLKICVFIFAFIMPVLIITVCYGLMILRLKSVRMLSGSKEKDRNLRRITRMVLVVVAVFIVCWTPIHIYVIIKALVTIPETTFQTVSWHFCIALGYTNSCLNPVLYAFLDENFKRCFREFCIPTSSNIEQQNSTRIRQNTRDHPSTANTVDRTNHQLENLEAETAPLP
Sequence of h5-HT2B (P41595 whole entry): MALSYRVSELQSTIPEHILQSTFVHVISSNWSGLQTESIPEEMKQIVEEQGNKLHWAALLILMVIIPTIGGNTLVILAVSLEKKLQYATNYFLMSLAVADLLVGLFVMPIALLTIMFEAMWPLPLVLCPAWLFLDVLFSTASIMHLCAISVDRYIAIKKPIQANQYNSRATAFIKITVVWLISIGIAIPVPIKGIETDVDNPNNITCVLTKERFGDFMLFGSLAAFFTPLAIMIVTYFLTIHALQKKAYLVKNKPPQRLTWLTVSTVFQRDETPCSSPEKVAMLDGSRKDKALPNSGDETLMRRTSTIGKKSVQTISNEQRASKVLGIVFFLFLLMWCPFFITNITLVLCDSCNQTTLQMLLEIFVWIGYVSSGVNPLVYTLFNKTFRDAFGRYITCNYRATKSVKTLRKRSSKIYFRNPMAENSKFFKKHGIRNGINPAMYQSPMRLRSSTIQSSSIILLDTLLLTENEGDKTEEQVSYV
T1 sequence (Q12809 whole entry): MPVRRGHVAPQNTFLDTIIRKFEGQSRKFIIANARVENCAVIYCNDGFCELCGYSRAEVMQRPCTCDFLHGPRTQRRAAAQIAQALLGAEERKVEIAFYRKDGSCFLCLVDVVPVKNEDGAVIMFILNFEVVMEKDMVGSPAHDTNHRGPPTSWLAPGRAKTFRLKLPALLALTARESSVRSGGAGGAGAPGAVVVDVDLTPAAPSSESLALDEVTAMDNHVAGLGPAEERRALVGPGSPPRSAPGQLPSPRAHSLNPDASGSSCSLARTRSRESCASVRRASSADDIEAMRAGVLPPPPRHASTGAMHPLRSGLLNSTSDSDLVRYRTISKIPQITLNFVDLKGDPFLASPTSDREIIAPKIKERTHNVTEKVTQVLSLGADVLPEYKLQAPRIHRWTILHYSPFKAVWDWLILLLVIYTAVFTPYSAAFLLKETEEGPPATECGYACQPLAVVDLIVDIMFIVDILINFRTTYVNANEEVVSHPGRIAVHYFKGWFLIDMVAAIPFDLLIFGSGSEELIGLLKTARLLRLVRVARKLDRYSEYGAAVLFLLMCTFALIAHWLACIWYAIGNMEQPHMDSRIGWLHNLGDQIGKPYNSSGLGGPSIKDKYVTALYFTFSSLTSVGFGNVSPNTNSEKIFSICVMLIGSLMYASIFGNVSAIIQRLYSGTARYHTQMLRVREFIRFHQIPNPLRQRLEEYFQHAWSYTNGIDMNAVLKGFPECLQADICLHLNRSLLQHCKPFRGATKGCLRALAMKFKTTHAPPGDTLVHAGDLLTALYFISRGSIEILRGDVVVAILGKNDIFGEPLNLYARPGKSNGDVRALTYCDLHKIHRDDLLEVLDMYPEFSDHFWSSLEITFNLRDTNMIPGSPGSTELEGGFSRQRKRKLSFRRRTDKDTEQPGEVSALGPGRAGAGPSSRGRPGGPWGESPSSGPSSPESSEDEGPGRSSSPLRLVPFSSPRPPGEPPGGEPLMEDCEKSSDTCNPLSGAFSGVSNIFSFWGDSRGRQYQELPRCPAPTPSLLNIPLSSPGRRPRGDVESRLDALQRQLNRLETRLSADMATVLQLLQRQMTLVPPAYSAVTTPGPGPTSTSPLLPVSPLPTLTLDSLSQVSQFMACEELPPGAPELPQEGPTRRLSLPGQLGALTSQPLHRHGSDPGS
T2 sequence (P41145 whole entry): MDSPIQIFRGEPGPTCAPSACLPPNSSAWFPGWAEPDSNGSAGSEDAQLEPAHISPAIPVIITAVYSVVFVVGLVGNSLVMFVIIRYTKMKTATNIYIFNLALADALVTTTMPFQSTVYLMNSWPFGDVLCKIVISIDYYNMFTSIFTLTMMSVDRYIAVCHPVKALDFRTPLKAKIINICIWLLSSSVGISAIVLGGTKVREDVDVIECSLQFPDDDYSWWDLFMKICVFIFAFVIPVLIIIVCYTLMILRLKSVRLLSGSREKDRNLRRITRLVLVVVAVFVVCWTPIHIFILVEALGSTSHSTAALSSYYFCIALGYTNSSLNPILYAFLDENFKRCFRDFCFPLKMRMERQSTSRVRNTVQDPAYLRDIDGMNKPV

## CCC1CC2CC3c4[nH]c5ccc(O)cc5c4CCN(C2)C13 (stereo not shown) [Noribogaine, Noribogaine hydrochloride]
hERG potassium channel
  Ki: 2 µM
Rat NMDA receptor
  IC50: 42 µM
Rat NMDA receptor; 1.00E-04 M
  NMDA receptor radioligand displacement, concentration-response point (Fig. S3c): 73
Rat NMDA receptor; 1.00E-05 M
  NMDA receptor radioligand displacement, concentration-response point (Fig. S3c): 14
Rat NMDA receptor; 1.00E-06 M
  NMDA receptor radioligand displacement, concentration-response point (Fig. S3c): 5
Rat NMDA receptor; 2.15E-05 M
  NMDA receptor radioligand displacement, concentration-response point (Fig. S3c): 32
Rat NMDA receptor; 4.64E-05 M
  NMDA receptor radioligand displacement, concentration-response point (Fig. S3c): 53
Rat NMDA receptor; [3H]MK-801 displacement, n = 1
  IC50: 42.2 µM
[1]; 0.083 h
  Brain Concentration (total): 6.61 µmol/L and 8.95 µmol/L
  Free Brain Concentration: 0.78 µmol/L and 1.057 µmol/L
  Free Plasma Concentration: 2258 nM and 2308 nM and 1083 nM
  Plasma Concentration (total): 4.83 µmol/L and 2.26 µmol/L and 4.72 µmol/L
[1]; 0.25 h
  Brain Concentration (total): 14.1 µmol/L and 14.82 µmol/L
  Free Brain Concentration: 1.664 µmol/L and 1.749 µmol/L
  Free Plasma Concentration: 2314 nM and 3247 nM
  Plasma Concentration (total): 6.79 µmol/L and 6.1 µmol/L
[1]; 0.5 h
  Brain Concentration (total): 18.56 µmol/L and 18.39 µmol/L
  Free Brain Concentration: 2.19 µmol/L and 2.17 µmol/L
  Free Plasma Concentration: 2561 nM and 3671 nM
  Plasma Concentration (total): 7.68 µmol/L and 6.99 µmol/L
[1]; 1 h
  Brain Concentration (total): 11.3 µmol/L and 11.04 µmol/L
  Free Brain Concentration: 1.334 µmol/L and 1.303 µmol/L
  Free Plasma Concentration: 1924 nM and 1899 nM
  Plasma Concentration (total): 3.97 µmol/L and 4.11 µmol/L
[1]; 2 h
  Brain Concentration (total): 4.77 µmol/L and 6.38 µmol/L
  Free Brain Concentration: 0.563 µmol/L and 0.752 µmol/L
  Free Plasma Concentration: 1638 nM and 938 nM
  Plasma Concentration (total): 1.96 µmol/L and 2.67 µmol/L
[1]; 4 h
  Brain Concentration (total): 2.93 µmol/L and 1.78 µmol/L and 5.54 µmol/L
  Free Brain Concentration: 0.346 µmol/L and 0.211 µmol/L and 0.654 µmol/L
  Free Plasma Concentration: 1067 nM and 684 nM and 289 nM
  Plasma Concentration (total): 1.43 µmol/L and 0.61 µmol/L and 2.23 µmol/L
[1]; 8 h
  Brain Concentration (total): 0.81 µmol/L and 0.72 µmol/L and 0.21 µmol/L
  Free Brain Concentration: 0.095 µmol/L and 0.085 µmol/L and 0.024 µmol/L
  Free Plasma Concentration: 47 nM and 125 nM and 114 nM
  Plasma Concentration (total): 0.26 µmol/L and 0.24 µmol/L and 0.1 µmol/L
[1]; 24 h
  Brain Concentration (total): 0.03 µmol/L and 0 µmol/L (2×)
  Free Brain Concentration: 0.004 µmol/L and 0 µmol/L (2×)
  Free Plasma Concentration: 2 nM and 4 nM and 0 nM
  Plasma Concentration (total): 0.01 µmol/L and 0 µmol/L (2×)
[1]; Brain
  Total concentration: 17.18 µmol/L
[1]; Brain, single s.c. 10 mg/kg
  CLf: 13.76 mL/min/kg
  T1/2: 1.71 h
[1]; Plasma
  Total concentration: 6.68 µmol/L
[1]; Plasma, single s.c. 10 mg/kg
  CLf: 31.87 mL/min/kg
  T1/2: 2.76 h
[1]; brain, s.c. 10 mg/kg
  CLf: 13.76 mL/min/kg
  AUC(0-inf): 12100 ng·h/mL
  AUC(0-t): 11700 ng·h/mL
  Cmax: 5090 ng/g
  Tmax: 0.5 h
  half-life: 1.71 h
  Vd/F: 2.04 L/kg
[1]; brain, 0.083 h, read-out: Brain Concentration (total)
  concentration at 0.083 h: 6750 nM
[1]; brain, 0.083 h, read-out: Free Brain Concentration
  concentration at 0.083 h: 797 nM
[1]; brain, 0.25 h, read-out: Brain Concentration (total)
  concentration at 0.25 h: 8040 nM
[1]; brain, 0.25 h, read-out: Free Brain Concentration
  concentration at 0.25 h: 949 nM
[1]; brain, 0.5 h, read-out: Brain Concentration (total)
  concentration at 0.5 h: 14600 nM
[1]; brain, 0.5 h, read-out: Free Brain Concentration
  concentration at 0.5 h: 1720 nM
[1]; brain, 1 h, read-out: Brain Concentration (total)
  concentration at 1 h: 11700 nM
[1]; brain, 1 h, read-out: Free Brain Concentration
  concentration at 1 h: 1380 nM
[1]; brain, 2 h, read-out: Brain Concentration (total)
  concentration at 2 h: 7820 nM
[1]; brain, 2 h, read-out: Free Brain Concentration
  concentration at 2 h: 923 nM
[1]; brain, Brain (brain conc. as ng/g), single s.c. 10 mg/kg
  Cmax: 5090 ng/mL
[1]; brain, single s.c. 10 mg/kg
  AUC(0-inf): 12100 ng·h/mL
  AUC(0-t): 11700 ng·h/mL and 39.4 µM·h
  Cmax: 17200 nM
[1]; plasma, 0.25 h, read-out: Free Plasma Concentration
  concentration at 0.25 h: 2910 nM
[1]; plasma, 0.25 h, read-out: Plasma Concentration (total)
  concentration at 0.25 h: 4840 nM
[1]; plasma, 0.5 h, read-out: Free Plasma Concentration
  concentration at 0.5 h: 3340 nM
[1]; plasma, 0.5 h, read-out: Plasma Concentration (total)
  concentration at 0.5 h: 5360 nM
[1]; plasma, 1 h, read-out: Free Plasma Concentration
  concentration at 1 h: 1960 nM
[1]; plasma, 1 h, read-out: Plasma Concentration (total)
  concentration at 1 h: 4030 nM
[1]; plasma, 2 h, read-out: Free Plasma Concentration
  concentration at 2 h: 1280 nM
[1]; plasma, 2 h, read-out: Plasma Concentration (total)
  concentration at 2 h: 3430 nM
[1]; plasma, s.c. 10 mg/kg
  AUC(0-inf): 5230 ng·h/mL
  AUC(0-t): 5220 ng·h/mL
  Cmax: 1980 ng/mL
  Tmax: 0.5 h
  half-life: 2.76 h
  Vd/F: 7.62 L/kg
  CLf: 31.87 mL/min/kg
[1]; plasma, single s.c. 10 mg/kg
  AUC(0-inf): 5230 ng·h/mL
  AUC(0-t): 5220 ng·h/mL and 17.6 µM·h
  Cmax: 1980 ng/mL and 6.68 µM
hKOR
  % effect at 100 µM: < 3%
mMOR
  Emax: 19%
mMOR; (95% CI)
  EC50: 9.11 µM
mMOR; M = -4
  Fig. S5h concentration-response data point: 24.8885 and 26.6264 and 27.7428 and 17.4963 and -8.212 and 30.4244 and 10.6283 and 6.222 and 21.9832
mMOR; M = -5
  Fig. S5h concentration-response data point: 8.23 and 17.0849 and 17.7259 and 22.4715 and 22.153 and 9.821 and 3.187 and 0.3566 and 4.1
mMOR; M = -6
  Fig. S5h concentration-response data point: 4.604 and 7.207 and -5.062 and 6.292 and -3.562 and -1.853 and 2.1627 and 6.968 and -3.361
mMOR; M = -7
  Fig. S5h concentration-response data point: 5.516 and -3.12 and 0.3751 and -1.392 and 9.617 and 0.0554 and -3.657 and -2.623 and -4.7725
mMOR; M = -8
  Fig. S5h concentration-response data point: 2.807 and -9.751 and -4.108 and 4.434 and 1.624 and 11.894 and 1.215 and 7.908 and -0.803
mMOR; M = -9
  Fig. S5h concentration-response data point: 3.672 and 14.0917 and -2.71 and 1.993 and 2.042 and -8.571 and -5.966 and 3.235 and -0.5438
mMOR; M = -10
  Fig. S5h concentration-response data point: 5.694 and 7.45 and -0.02465 and -4.39 and 8.693 and -12.0081 and -1.935 and 3.572 and 2.108
mMOR; M = -11
  Fig. S5h concentration-response data point: 0.01325 and 7.439 and 24.776 and 1.616 and -6.541 and -6.127 and 16.1632 and 10.3257 and 7.821
[2]
  QT prolongation: > 500 ms
[3]
  % Stability (4 h): 105%
[3]; plasma, pH 7.4
  % Unbound: 40.1%
h5-HT2B; 1.00E-05 M
  inhibition at 10 µM: 10%
h5-HT2B; 1.00E-06 M
  inhibition at 1 µM: 7%
[4]
  concentration with greater than 20% incidence of arrhythmia-associated events (considerable pro-arrhythmia risk): ≥ 1000 nM
  pro-arrhythmic potential: pro-arrhythmic potential by causing after-contractions and contraction failures
[4]; 0.1 (µM)
  Alternans %: 0%
  Contraction Failure %: 0%
  STV %: 0%
[4]; 0.1 (µM), incidence of cells
  After-contraction %: 16.67%
[4]; listed as noribogaine
  pro-arrhythmic potential: concentration-dependent pro-arrhythmia risk
[4]; 1 (µM)
  After-contraction %: 33.33%
  Alternans %: 0%
  Contraction Failure %: 0%
  STV %: 0%
[4]; 3.16 (µM)
  After-contraction %: 50%
  Alternans %: 0%
  Contraction Failure %: 16.67%
  STV %: 0%
[4]; 10 (µM)
  After-contraction %: 50%
  Alternans %: 0%
  Contraction Failure %: 16.67%
  STV %: 0%
[5]; 60 mg oral dose, mild QT effect
  estimated free plasma noribogaine Cmax: approximately 100 nM
[5]; 180 mg oral dose
  estimated free plasma noribogaine Cmax: 300 to 400 nM
hMOR
  EC50: 11.1 µM
  Emax: 57%
rKOR
  EC50: 6.1 µM
rKOR; (95% CI)
  EC50: 6.24 µM
rKOR; normalized to Emax of U-50,488
  Emax: 52%
